Test results taken from patent US7365084B2, “Cycloalkyl-substituted amino acid derivatives, processes for their preparation and their use as pharmaceuticals” (SanoFi-Aventis Deutschland GmbH, priority 2003, dated 2008).

The molecules below were run against T1, human PPARalpha receptor (GR-GAL4-humanPPARalpha-LBD fusion protein) (Homo sapiens, UniProt Q07869) (assay: Cellular PPARalpha assay (stably transfected HEK luciferase reporter cell line)). Conditions: 24 h incubation.
T1 construct: amino acids S167-Y468; expressed in transfected cells; host or cells: HEK (human embryo kidney) cells, stably transfected with pcDNA3 carrying the fusion construct
T1 sequence (Q07869 167-468): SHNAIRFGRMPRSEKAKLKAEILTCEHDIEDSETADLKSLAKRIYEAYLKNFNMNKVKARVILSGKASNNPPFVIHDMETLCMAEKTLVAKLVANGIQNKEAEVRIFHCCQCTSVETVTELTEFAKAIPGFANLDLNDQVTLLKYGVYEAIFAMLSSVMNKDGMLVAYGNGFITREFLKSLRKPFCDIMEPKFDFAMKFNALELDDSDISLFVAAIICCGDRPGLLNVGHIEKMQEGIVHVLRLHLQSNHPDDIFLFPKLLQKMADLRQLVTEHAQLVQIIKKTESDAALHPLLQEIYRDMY
Assay type: cell-based
Procedure: (A) Determination of EC50 Values of PPAR Agonists in the Cellular PPARalpha Assay
The potency of substances which bind to human PPAR[…] and activate in an agonistic manner is analyzed using a stably transfected HEK cell line (HEK=human embryo kidney) which is referred to here as PPARalpha reporter cell line. It contains two genetic elements, a luciferase reporter element (pΔM-GAL4-Luc-Zeo) and a PPARalpha fusion protein (GR-GAL4-humanPPARα-LBD) which mediates expression of the luciferase reporter element depending on a PPARalpha ligand. The stably and constitutively expressed fusion protein GR-GAL4-humanPPARalpha-LBD binds in the cell nucleus of the PPARalpha reporter cell line via the GAL4 protein portion to the GAL4 DNA binding motifs 5′-upstream of the luciferase reporter element which is integrated in the genome of the cell line. There is only little expression of the luciferase reporter gene without addition of a PPARalpha ligand if fatty acid-depleted fetal calf serum (cs-FCS) is used in the assay. PPARα ligands bind and activate the PPARα fusion protein and thereby bring about expression of the luciferase reporter gene. The luciferase which is formed can be detected by means of chemi-luminescence via an appropriate substrate.
The PPARalpha reporter cell line was prepared in 2 stages. Firstly, the luciferase reporter element was constructed and stably transfected into HEK cells. For this purpose, five binding sites of the yeast transcription factor GAL4 (each 5′-CGGAGTACTGTCCTCCGAG-3′) (SEQ ID NO:1) were cloned in 5′-upstream of a 68 bp-long minimal MMTV promoter (Genbank Accession # V01175). The minimal MMTV promoter section contains a CCAAT box and a TATA element in order to enable efficient transcription by RNA polymerase II. The cloning and sequencing of the GAL4-MMTV construct took place in analogy to the description of Sambrook J. et. al. (Molecular cloning, Cold Spring Harbor Laboratory Press, 1989). Then the complete Photinus pyralis gene (Genbank Accession # M15077) was cloned in 3′-downstream of the GAL4-MMTV element. After sequencing, the luceriferase reporter element consisting of five GAL4 binding sites, MMTV promoter and luciferase gene was recloned into a plasmid which confers zeocin resistance in order to obtain the plasmid pΔM-GAL4-Luc-Zeo. This vector was transfected into HEK cells in accordance with the statements in Ausubel, F. M. et al. (Current protocols in molecular biology, Vol. 1-3, John Wiley & Sons, Inc., 1995). […] In a second step, the PPARalpha fusion protein (GR-GAL4-humanPPARalpha-LBD) was introduced into the stable cell clone described. For this purpose, initially the cDNA coding for the N-terminal 76 amino acids of the glucocorticoid receptor (Genbank Accession # P04150) was linked to the cDNA section coding for amino acids 1-147 of the yeast transcription factor GAL4 (Genbank Accession # P04386). The cDNA of the ligand-binding domain of the human PPARalpha receptor (amino acids S167-Y468; Genbank Accession # S74349) was cloned in at the 3′-end of this GR-GAL4 construct. The fusion construct prepared in this way (GR-GAL4-humanPPARalpha-LBD) was recloned into the plasmid pcDNA3 (from Invitrogen) in order to enable constitutive expression therein by the cytomegalovirus promoter. This plasmid was linearized with a restriction endonuclease and stably transfected into the previously described cell clone containing the luciferase reporter element. The finished PPARalpha reporter cell line which contains a luciferase reporter element and constitutively expresses the PPARalpha fusion protein (GR-GAL4-human PPARalpha-LBD) was isolated by selection with zeocin (0.5 mg/ml) and G418 (0.5 mg/ml).
The activity of PPARalpha agonists is determined in a 3-day assay which is described below: […]

SMILES	EC50
Cc1oc(-c2cccc(C(F)(F)F)c2)nc1COCC1CCCC(C(=O)N[C@H](C(=O)O)C(C)C)C1 (some centres unmarked) [Example 44]	4.5 nM
CCc1oc(-c2ccc(C(F)(F)F)cc2)nc1COCC1CCCC(C(=O)N[C@H](C(=O)O)C(C)C)C1 (some centres unmarked) [Example 50]	1.2 nM
Cc1ccc(-c2nc(COC3CCCC(C(=O)NC4(C(=O)O)CCCC4)C3)c(C)o2)cc1 (racemic) [Example 25, 1-{[(1R,3S)/(1S,3R)-3-(5-Methyl-2-p-tolyloxazol-4-ylmethoxy)cyclohexanecarbonyl]amino}cyclopentanecarboxylic acid]	7.2 nM
Cc1ccc(-c2nc(COC3CCCC(C(=O)N[C@@H](C)C(=O)O)C3)c(C)o2)cc1 (stereo partly drawn) [Example 3, (S)-2-{[(1R,3S)/(1S,3R)-3-(5-Methyl-2-p-tolyloxazol-4-ylmethoxy)cyclohexanecarbonyl]amino}propionic acid]	99 nM
Cc1oc(-c2cccc(C(F)(F)F)c2)nc1COC1CCCC(C(=O)N[C@H](C(=O)O)C(C)C)C1 (stereo partly drawn) [Example 11, (S)-3-Methyl-2-({(1R,3S)/(1S,3R)-3-[5-methyl-2-(3-trifluoromethylphenyl)-oxazol-4-ylmethoxy]cyclohexanecarbonyl}amino)butyric acid]	15 nM
CCc1oc(-c2ccc(C)cc2)nc1CO[C@H]1CCC[C@@H](C(=O)N[C@H](C(=O)O)C(C)C)C1 [Example 21a, (S)-3-methyl-2-{[(1R,3S)-3-(5-ethyl-2-p-tolyloxazol-4-ylmethoxy)cyclohexanecarbonyl]amino}butyric acid]	5 nM
CC(C)c1oc(-c2ccc(C(F)(F)F)cc2)nc1COCC1CCCC(C(=O)N[C@H](C(=O)O)C(C)C)C1 (some centres unmarked) [Example 43]	32 nM
Cc1ccc(-c2nc(COC3CCCC(C(=O)NC(C)(C)C(=O)O)C3)c(C)o2)cc1 (racemic) [Example 5, 2-Methyl-2-{[(1R,3S)/(1S, 3R)-3-(5-methyl-2-p-tolyloxazol-4-ylmethoxy)-cyclohexanecarbonyl]amino}propionic acid]	29 nM
